According to patent US20250145600A1, “2-((4-((S)-2-(4-CHLORO-2-FLUOROPHENYL)-2-METHYLBENZO[D][1,3]DIOXOL-4-YL)PIPERIDIN-1-YL)METHYL)-1-(((S)-OXETAN-2-YL)METHYL)-1H-IMIDAZOLE DERIVATIVES AS ACTIVATORS OF THE GLP1 RECEPTOR FOR THE TREATMENT OF OBESITY” (Novartis AG, priority 2022, published 2025):

Target: human GLP1R (Homo sapiens, UniProt P43220)
Assay: Human GLP1R DERET internalization assay
Assay type: cell-based
Conditions: HEK293-SNAP-hGLP1R-GloSensor cells
Protocol: Compounds of formula (I) according to the invention were tested in the following cellular assays that measure the intracellular cAMP concentration, beta-arrestin recruitment and receptor internalization. The cAMP is generated by the activation of GLP1R. The extent to which the GLP1R is internalized into the cell and away from the plasma membrane following activation is also shown in Table 2. EC50 for each assay is defined as the concentration of the compound that leads to half of the maximum response (after baseline correction). Emax is defined as the maximum response observed for the test compound, normalized to the maximum response observed for the endogenous ligand (GLP1(7-36)) to GLP1R.
Human GLP1R DERET Internalization Assay
The extent to which agonists internalize the human GLP1R was determined based on an optimized version of a RealTime FRET-based ‘DERET’ (Dissociation Enhanced Resonance Energy Transfer) assay. The technology relies on labeling of the SNAP-tagged GPCR with a SNAP-Lumi-Terbium (donor fluorophore, Cisbio, cat #SSNPTBD). The compounds are incubated with the cells over-expressing the GPCR of interest in the presence of an excess of fluorescein (acceptor fluorophore). When the GPCR is on the cell surface, the donor signal is quenched by the acceptor and the donor/acceptor ratio is low. As the GPCR internalizes, the donor signal is no longer quenched, and the acceptor is no longer excited so the donor/acceptor ratio increases.
HEK293-SNAP-hGLP1R-GloSensor cells (stably overexpressing SNAP-tagged hGLP1R) were seeded overnight in white 384-well poly-D-Lysine coated plates (Greiner Bio One, cat #781945) in regular DMEM growth medium (Gibco, cat #11965-092, 10% heat-inactivated FBS, 10 mM HEPES, 1× penicillin/streptomycin, 0.5 mg/mL geneticin (Gibco, cat #10131-035) and 0.25 mg/mL hygromycin B (Invitrogen, cat #10687010). On the assay day, cell medium was removed and 100 nM SNAP-Lumi-Tb reagent was added in Opti-MEM solution. The cells were incubated at 37° C. for 1 h. Cells were washed using a plate washer in assay buffer [1×HBSS (10× Gibco, cat #14065-056), 20 mM Hepes (Gibco, cat #15630-080), 1 mM CaCl2 (Fluka, cat #21114-1L), 1 mM MgCl2 (Ambion, cat #AM9530G) pH7.4], and 20 μL buffer with 0.1% BSA was added to each well. After leaving cells to equilibrate for […] at 37° C., 10 μL of Fluorescein (sodium salt, Sigma, cat #F6377, diluted in buffer) was added at 25 μM final concentration. To generate triplicate dose response curves, compounds were serially diluted 3-fold in assay buffer, then added to the cell assay plate to a final volume of 40 μL and final top concentrations starting at 30 μM. In the same plate and assay buffer as the tested compounds, a GLP1 (7-36) peptide (Bachem, cat #H-6795) control curve was included at a final top concentration of 1 μM in order to establish EC100. EC0 wells with buffer only were also included. The plate FRET fluorescence was measured immediately using a Perkin Elmer Envision with LANCE/DELFIA D400 single mirror, excitation filter X320, and emission filters M615_203 (donor emission) and M515 (acceptor emission), and then measured every 30 min. […] Plates were kept at 37° C. between reads. Data was expressed as the ratio of donor/acceptor emissions using Microsoft Excel and plotted in GraphPad Prism. In order to determine EC50 and Emax for internalization, data was calculated and expressed as percent of the GLP1 (7-36) EC100 control wells: [(sample signal−mean EC0 signal)/(mean EC100 of GLP1 (7-36) signal−mean EC0 signal)]*100 using Microsoft Excel. Curve fitting for EC50 determinations was performed using GraphPad Prism. The 4-parameter logistic model, Hill slope was used:
where Y is the functional response; X is the compound concentration; bottom is A0 or the minimum value (at 0 dose); top is Ainf or the maximum value (at infinite dose); EC50 is the point of inflection (i.e. the point on the sigmoid shaped curve halfway between A0 and Ainf). […]

Sequence of human GLP1R (P43220 24-463): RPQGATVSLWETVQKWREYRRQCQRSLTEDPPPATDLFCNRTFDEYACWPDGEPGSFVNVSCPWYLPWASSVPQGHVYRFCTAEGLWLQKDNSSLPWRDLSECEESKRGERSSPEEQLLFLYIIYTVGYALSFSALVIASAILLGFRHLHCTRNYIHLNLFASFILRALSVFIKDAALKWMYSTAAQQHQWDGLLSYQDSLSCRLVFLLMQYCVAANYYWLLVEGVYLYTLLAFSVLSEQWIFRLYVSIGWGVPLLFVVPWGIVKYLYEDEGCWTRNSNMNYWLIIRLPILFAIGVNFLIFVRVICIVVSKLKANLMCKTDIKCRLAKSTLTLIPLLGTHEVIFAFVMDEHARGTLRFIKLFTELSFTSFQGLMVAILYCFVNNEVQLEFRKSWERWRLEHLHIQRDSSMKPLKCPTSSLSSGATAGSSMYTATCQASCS

With `Cc1nc(CN2CCC(c3cccc4c3O[C@@](C)(c3ccc(Cl)cc3F)O4)CC2)n(C[C@@H]2CCO2)c1-c1cc(C(=O)O)n(C)n1` [Compound C-21, 3-(2-((4-((S)-2-(4-chloro-2-fluorophenyl)-2-methylbenzo[d][1,3]dioxol-4-yl)piperidin-1-yl)methyl)-4-methyl-1-(((S)-oxetan-2-yl)methyl)-1H-imidazol-5-yl)-1-methyl-1H-pyrazole-5-carboxylic acid] the EC50 (top concentration 30 μM) was over 30 µM and the Emax (relative to GLP1(7-36)) was 2%.
